Measurements from US11472769B2, “SSAO inhibitors and use thereof” (Eccogene (Shanghai) Co., Ltd., priority 2019, dated 2022).

Columns and labels:
[1] = Brain Kpuu assay (BBB assay and protein binding assay); type: in vivo; settings: ICR mice, 1 mg/kg IV, plasma and brain collected at 5 minutes after dosing
Protocol: For example, Brain Kpuu assay composed of Blood-Brain-Barrier (BBB) assay and protein binding assay, can be utilized. The protein binding assay comprises equilibrium dialysis against brain lysate and plasma to calculate fu(brain) and fu(plasma), respectively. The BBB assay can be conducted in experimental animals at 1 mg/kg IV dosage. After dosing with the compounds of the present application, plasma and brain samples can be collected to analyze compound concentration (Cplasma and Cbrain). The Kpuu value of the tested compounds can be calculated by the equation: […]
Brain Kpuu assay is composed of Blood-Brain-Barrier (BBB) assay and protein binding assay, which are conducted in ICR mice. Protein binding assays were performed in 96-well plates, using equilibrium dialysis against brain lysate and plasma to calculate fu(brain) and fu(plasma), respectively. BBB assays were conducted in mice at 1 mg/kg IV dosage. Plasma and brain samples were collected at 5 minutes after dosing to analyze compounds concentration (Cplasma and Cbrain). The Kpuu value of the tested compounds was calculated by the equation: […]

recombinant hMAO-B = recombinant hMAO-B (Homo sapiens (Human), UniProt P27338); assay: MAO-B activity assay (MAO-Glo assay kit); type: biochemical; settings: 4 μM substrate, 30 mins pre-incubation
Protocol: (§1) The biological activities of the compounds of the present application can be assessed with methods and assays known in the art. For example, the potency of the compounds of the present application can be evaluated with an SSAO Activity Assay. Briefly, compounds of the present application can be applied to recombinant hSSAO, hMAO-A, and hMAO-B isoforms and the amine oxidase activity of the enzymes are measured after the addition and subsequent oxidation of the luminogenic substrate (e.g., with the MAO-Glo assay kit from Promega). The IC50 can be calculated, for example, by fitting the dose response curve using a 4-parameter non-linear regression routine.
(§2) Amine oxidase activity of recombinant hSSAO, hMAO-A, and hMAO-B isoforms are measured using the MAO-Glo assay kit (Promega, V1402). Ten nL test compounds (with DMSO as vehicle, 0.1% v/v for hSSAO, hMAO-A and hMAO-B) were added into assay plates by Echo, and pre-incubated with 5 μL of enzyme for 30 mins at room temperature before the addition of 5 μL of luminogenic substrate. The substrate concentration is 40 μM for human recombinant SSAO, 40 μM for human recombinant MAO-A, and 4 μM for human recombinant MAO-B. The hSSAO and hMAO-A assays were conducted in the MAO-A reaction buffer in the kit, and the MAO-B assay was conducted in the MAO-B reaction buffer. Oxidation of the substrate was conducted for 1 hr, before the addition of detecting reagent according the manufacture's protocol. The IC50 value of the tested compounds was calculated by fitting the dose response curve using a 4-parameter non-linear regression routine.

recombinant hMAO-A = recombinant hMAO-A (Homo sapiens (Human), UniProt P21397); assay: MAO-A activity assay (MAO-Glo assay kit); type: biochemical; settings: 40 μM substrate, 30 mins pre-incubation
Protocol: as §1, §2

recombinant hSSAO = recombinant hSSAO (Homo sapiens (Human), UniProt Q16853); assay: SSAO Activity Assay (MAO-Glo assay kit); type: biochemical; settings: 40 μM substrate, 30 mins pre-incubation
Outline: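 Substrate was 4 μM in MAO-B buffer for hMAO-B and 40 μM in MAO-A buffer for hSSAO and hMAO-A. Each enzyme first saw compound (0.1% DMSO vehicle) for 30 min at room temperature.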

Chain of recombinant hMAO-B (P27338 whole entry, canonical isoform): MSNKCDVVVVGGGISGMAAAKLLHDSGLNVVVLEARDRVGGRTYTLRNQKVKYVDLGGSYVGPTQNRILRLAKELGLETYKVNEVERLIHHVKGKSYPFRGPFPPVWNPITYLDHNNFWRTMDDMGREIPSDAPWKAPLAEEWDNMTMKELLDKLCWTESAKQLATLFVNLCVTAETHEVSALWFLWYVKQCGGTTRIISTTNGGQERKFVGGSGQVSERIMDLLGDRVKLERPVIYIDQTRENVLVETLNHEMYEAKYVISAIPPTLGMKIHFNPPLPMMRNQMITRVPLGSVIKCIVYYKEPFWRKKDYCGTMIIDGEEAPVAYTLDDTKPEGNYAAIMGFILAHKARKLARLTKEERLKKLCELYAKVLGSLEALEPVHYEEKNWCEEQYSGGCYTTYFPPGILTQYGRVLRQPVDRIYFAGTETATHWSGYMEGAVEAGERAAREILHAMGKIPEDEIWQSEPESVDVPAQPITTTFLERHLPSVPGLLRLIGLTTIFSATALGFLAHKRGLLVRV
Chain of recombinant hMAO-A (P21397 whole entry): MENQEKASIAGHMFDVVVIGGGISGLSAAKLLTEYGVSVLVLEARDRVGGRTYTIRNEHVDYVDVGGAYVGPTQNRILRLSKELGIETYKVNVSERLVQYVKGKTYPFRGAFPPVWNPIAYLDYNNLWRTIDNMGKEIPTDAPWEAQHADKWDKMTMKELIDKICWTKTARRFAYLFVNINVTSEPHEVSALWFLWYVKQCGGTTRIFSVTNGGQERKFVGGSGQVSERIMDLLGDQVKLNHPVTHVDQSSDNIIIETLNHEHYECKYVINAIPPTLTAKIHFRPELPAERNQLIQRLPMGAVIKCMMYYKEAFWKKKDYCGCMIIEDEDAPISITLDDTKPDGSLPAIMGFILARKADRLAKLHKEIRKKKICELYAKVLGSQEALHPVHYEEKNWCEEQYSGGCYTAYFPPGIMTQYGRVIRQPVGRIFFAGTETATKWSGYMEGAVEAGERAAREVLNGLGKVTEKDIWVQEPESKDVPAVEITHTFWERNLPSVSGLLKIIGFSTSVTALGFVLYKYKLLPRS
Chain of recombinant hSSAO (Q16853 whole entry): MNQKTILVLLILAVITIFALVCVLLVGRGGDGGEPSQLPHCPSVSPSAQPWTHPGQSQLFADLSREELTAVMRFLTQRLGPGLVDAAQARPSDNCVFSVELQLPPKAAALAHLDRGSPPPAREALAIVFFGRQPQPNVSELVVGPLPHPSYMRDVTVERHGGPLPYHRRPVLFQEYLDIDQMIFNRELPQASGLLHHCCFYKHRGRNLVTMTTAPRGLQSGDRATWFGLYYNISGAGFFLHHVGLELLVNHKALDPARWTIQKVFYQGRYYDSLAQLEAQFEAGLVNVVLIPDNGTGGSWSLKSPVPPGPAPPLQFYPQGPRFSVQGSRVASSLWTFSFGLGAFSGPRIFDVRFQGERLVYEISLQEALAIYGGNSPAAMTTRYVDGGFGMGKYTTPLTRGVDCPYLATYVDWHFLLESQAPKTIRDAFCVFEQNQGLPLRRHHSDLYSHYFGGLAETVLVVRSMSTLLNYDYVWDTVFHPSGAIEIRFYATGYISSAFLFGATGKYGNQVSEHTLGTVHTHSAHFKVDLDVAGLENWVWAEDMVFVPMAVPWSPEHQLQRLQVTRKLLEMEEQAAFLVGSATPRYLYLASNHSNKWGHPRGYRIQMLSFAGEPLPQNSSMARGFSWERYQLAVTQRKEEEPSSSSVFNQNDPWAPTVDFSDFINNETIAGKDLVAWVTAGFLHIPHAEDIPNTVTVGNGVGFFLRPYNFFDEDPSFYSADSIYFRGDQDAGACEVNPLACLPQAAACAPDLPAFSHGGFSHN

| SMILES | Kpuu (mouse, t = 5 min) [1] | IC50 (recombinant hMAO-B) [µM] | IC50 (recombinant hMAO-A) [µM] | IC50 (recombinant hSSAO) [µM] | Kp uu at 5 min ([1]; mouse, read-out: Kpuu (mouse, t = 5 min)) |
| --- | --- | --- | --- | --- | --- |
| CC(C)(C)NC(=O)c1ccc(OC/C(=C/F)CN)cc1.Cl [BI 1467335 (PXS-4728A), reference compound] | 0.23 | – | – | – | – |
| CC(CN1CCOCC1)CS(=O)(=O)c1ccc(OC/C(=C/F)CN)cc1F (stereo not shown) [Compound 114, (E)-3-fluoro-2-((3-fluoro-4-((2-methyl-3-morpholinopropyl)sulfonyl)phenoxy)methyl)prop-2-en-1-amine] | – | > 30 | > 30 | 0.02 to 0.1 | – |
| NC/C(=C\F)COc1ccc(S(=O)(=O)CC2(CN3CCOCC3)CC2)cc1 [Compound 116, (E)-3-fluoro-2-((4-(((1-(morpholinomethyl)cyclopropyl)methyl)sulfonyl)phenoxy)methyl) prop-2-en-1-amine] | – | > 30 | > 30 | 0.02 to 0.1 | – |
| NC/C(=C\F)COc1ccc(S(=O)(=O)CN2Cc3ccccc3C2=O)cc1 [Compound 118, (E)-2-(((4-((2-(aminomethyl)-3-fluoroallyl)oxy)phenyl)sulfonyl)methyl)isoindolin-1-one] | – | < 10 | < 10 | 0.02 to 0.1 | – |
| NC/C(=C\F)COc1ccc(S(=O)(=O)CN2C(=O)CCc3ccccc32)cc1 [Compound 119, (E)-1-(((4-((2-(aminomethyl)-3-fluoroallyl)oxy)phenyl)sulfonyl)methyl)-3,4-dihydroquinolin-2(1H)-one] | – | > 30 | 10 to 30 | 0.02 to 0.1 | – |
| NC/C(=C\F)COc1ccc(S(=O)(=O)CN2C(=O)C3(CC3)c3ccccc32)cc1 [Compound 120, (E)-1′-(((4-((2-(aminomethyl)-3-fluoroallyl)oxy)phenyl)sulfonyl)methyl)spiro[cyclopropane-1,3′-indolin]-2′one] | – | > 30 | > 30 | 0.02 to 0.1 | – |
| CC(C)C(=O)N(C)CS(=O)(=O)c1ccc(OC/C(=C/F)CN)cc1 [Compound 122, (E)-N-(((4-((2-(aminomethyl)-3-fluoroallyl)oxy)phenyl)sulfonyl)methyl)-N-methylisobutyramide] | – | < 10 | > 30 | 0.02 to 0.1 | – |
| CC1(C)CCC(=O)N1CS(=O)(=O)c1ccc(OC/C(=C/F)CN)cc1 [Compound 123, (E)-1-(((4-((2-(aminomethyl)-3-fluoroallyl)oxy)phenyl)sulfonyl)methyl)-5,5-dimethylpyrrolidin-2-one] | – | > 30 | > 30 | 0.02 to 0.1 | – |
| CC1(C)CCC(=O)N1CS(=O)(=O)c1ccc(OC/C(=C/F)CN)cc1Cl [Compound 124, (E)-1-(((4-((2-(aminomethyl)-3-fluoroallyl)oxy)-2-chlorophenyl)sulfonyl)methyl)-5,5-dimethylpyrrolidin-2-one] | – | > 30 | > 30 | 0.02 to 0.1 | – |
| CC1(C)CCN(CS(=O)(=O)c2ccc(OC/C(=C/F)CN)cc2)C1=O [Compound 125, (E)-1-(((4-((2-(aminomethyl)-3-fluoroallyl)oxy)phenyl)sulfonyl)methyl)-3,3-dimethylpyrrolidin-2-one] | – | < 10 | > 30 | 0.02 to 0.1 | – |
| CC1(C)CC(=O)N(CS(=O)(=O)c2ccc(OC/C(=C/F)CN)cc2)C1 [Compound 126, (E)-1-(((4-((2-(aminomethyl)-3-fluoroallyl)oxy)phenyl)sulfonyl)methyl)-4,4-dimethylpyrrolidin-2-one] | – | 10 to 30 | > 30 | 0.1 to 0.5 | – |
| NC/C(=C\F)COc1ccc(S(=O)(=O)CN2CCC3(CCCC3)C2=O)cc1 [Compound 127, (E)-2-(((4-((2-(aminomethyl)-3-fluoroallyl)oxy)phenyl)sulfonyl)methyl)-2-azaspiro[4.4]nonan-1-one] | – | < 10 | > 30 | 0.1 to 0.5 | – |
| NC/C(=C\F)COc1ccc(S(=O)(=O)CN2CCC3(CCCC3)C2=O)c(F)c1 [Compound 128, (E)-2-(((4-((2-(aminomethyl)-3-fluoroallyl)oxy)-2-fluorophenyl)sulfonyl)methyl)-2-azaspiro[4.4]nonan-1-one] | – | > 30 | > 30 | 0.1 to 0.5 | – |
| NC/C(=C\F)COc1ccc(S(=O)(=O)CN2CCCCC2=O)cc1 [Compound 129, (E)-1-(((4-((2-(aminomethyl)-3-fluoroallyl)oxy)phenyl)sulfonyl)methyl)piperidin-2-one] | – | 10 to 30 | > 30 | 0.02 to 0.1 | – |
| NC/C(=C\F)COc1ccc(S(=O)(=O)CN2CCOCC2=O)cc1 [Compound 130, (E)-4-(((4-((2-(aminomethyl)-3-fluoroallyl)oxy)phenyl)sulfonyl)methyl)morpholin-3-one] | – | > 30 | > 30 | 0.02 to 0.1 | – |
| NC/C(=C\F)COc1ccc(S(=O)(=O)CN2CCOCC2=O)c(F)c1 [Compound 131, (E)-4-(((4-((2-(aminomethyl)-3-fluoroallyl)oxy)-2-fluorophenyl)sulfonyl)methyl) morpholin-3-one] | – | > 30 | > 30 | 0.02 to 0.1 | – |
| CC1(C)COCC(=O)N1CS(=O)(=O)c1ccc(OC/C(=C/F)CN)cc1 [Compound 132, (E)-4-(((4-((2-(aminomethyl)-3-fluoroallyl)oxy)phenyl)sulfonyl)methyl)-5,5-dimethylmorpholin-3-one] | – | < 10 | > 30 | 0.02 to 0.1 | – |
| NC/C(=C/F)COc1ccc(S(=O)(=O)CC23CCC(C(=O)NC4CCC4)(CC2)CC3)cc1 [Compound 140, (Z)-4-(((4-((2-(aminomethyl)-3-fluoroallyl)oxy)phenyl)sulfonyl)methyl)-N-cyclobicyclo[2.2.2]octane-1-carboxamide] | – | > 30 | > 30 | < 0.02 | – |
| CC(C)(C)NC(=O)C12CCC(CS(=O)(=O)c3ccc(OC/C(=C\F)CN)cc3)(CC1)CC2 [Compound 141, (Z)-4-(((4-((2-(aminomethyl)-3-fluoroallyl)oxy)phenyl)sulfonyl)methyl)-N-(tert-butyl)bicyclo[2.2.2]octane-1-carboxamide] | – | > 30 | > 30 | 0.02 to 0.1 | – |
| CC(C)(C)C(=O)NC12CCC(CS(=O)(=O)c3ccc(OC/C(=C\F)CN)cc3)(CC1)CC2 [Compound 142, (Z)-N-(4-(((4-((2-(aminomethyl)-3-fluoroallyl)oxy)phenyl)sulfonyl)methyl)bicyclo[2.2.2]octan-1-yl)pivalamide] | – | > 30 | > 30 | < 0.02 | – |
| CC(C)NC(=O)C1CCC(CS(=O)(=O)c2ccc(OC/C(=C/F)CN)cc2)CC1 (stereo not shown) [Compound 144, (E)-4-(((4-((2-(aminomethyl)-3-fluoroallyl)oxy)phenyl)sulfonyl)methyl)-N-isopropylcyclohexane-1-carboxamide] | – | < 10 | > 30 | 0.02 to 0.1 | – |
| N#CC1(CS(=O)(=O)c2ccc(OC/C(=C/F)CN)cc2F)CCOCC1 [compound 13, (E)-4-(((4-((2-(aminomethyl)-3-fluoroallyl)oxy)-2-fluorophenyl)sulfonyl)methyl) tetrahydro-2H-pyran-4-carbonitrile] | – | 10 to 30 | 10 to 30 | 0.02 to 0.1 | – |
| CC(C)C(=O)N1CCC(CS(=O)(=O)c2ccc(OC/C(=C/F)CN)cc2)CC1 [compound 37, (E)-1-(4-(((4-((2-(aminomethyl)-3-fluoroallyl)oxy)phenyl)sulfonyl)methyl)piperidin-1-yl)-2-methylpropan-1-one] | – | > 30 | > 30 | < 0.02 | – |
| CN(C)C(=O)C12CCC(CS(=O)(=O)c3ccc(OC/C(=C/F)CN)cc3)(CC1)CC2 [compound 62, (E)-4-(((4-((2-(aminomethyl)-3-fluoroallyl)oxy)phenyl)sulfonyl)methyl)-N,N-dimethylbicyclo[2.2.2]octane-1-carboxamide] | – | 10 to 30 | – | 0.02 to 0.1 | 0.034 |
